Laboratory results published in PubChem BioAssay AID1963428 (Molecular Pharmacology Branch, DTP, NCI, 2024).
pIC50: −log10 of the molar value.

Tested on: 171881-019-R-J1-PDC complex spheroid growth, % test/control
Test: Anticancer human tumor 171881-019-R-J1-PDC patient-derived invasive breast carcinoma cell line growth inhibition [Asc]
Conditions: for pIC50: curve of first compound; for viability, T/C: stronger effect = lower value
Outline: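 Complex spheroids combining tumor cells with HUVEC endothelial cells and human MSCs, at 37 degrees C, 5% CO2; agents tested alone or combined, half-log dilutions from at or near clinical Cmax, or 10 microM if Cmax unknown.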
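Throughout, for viability, T/C: spheroids exposed to compounds for 7 days.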

`NC(=O)C(=Cn1cnc(-c2cc(C(F)(F)F)cc(C(F)(F)F)c2)n1)c1cncnc1` + CNC(C)C(=O)NC1CN(S(=O)(=O)c2cccc(S(=O)(=O)N3CCC4CCC(C(=O)NC(c5ccccc5)c5ccccc5)N4C(=O)C(NC(=O)C(C)NC)C3)c2)CCC2CCC(C(=O)NC(c3ccccc3)c3ccccc3)N2C1=O showed a pIC50 (second compound 0.01 µM) of 7.20, a pIC50 (second compound 0.0316 µM) of 7.18 and a pIC50 (second compound 0.1 µM) of 7.21. For the same compound, the pIC50 (second compound 0.316 µM) was 7.23, the pIC50 (second compound 1 µM) was 7.21 and the viability, T/C (second compound 0.01 µM, first compound 0.000949 µM) was 118%. For the same compound, the viability, T/C (second compound 0.01 µM, first compound 0.003 µM) was 101%, the viability, T/C (second compound 0.01 µM, first compound 0.00949 µM) was 139% and the viability, T/C (second compound 0.01 µM, first compound 0.03 µM) was 109%. For the same compound, the viability, T/C (second compound 0.01 µM, first compound 0.0949 µM) was 17.5%, the viability, T/C (second compound 0.01 µM, first compound 0.3 µM) was 5.02% and the viability, T/C (second compound 0.0316 µM, first compound 0.000949 µM) was 109%. For the same compound, the viability, T/C (second compound 0.0316 µM, first compound 0.003 µM) was 111%, the viability, T/C (second compound 0.0316 µM, first compound 0.00949 µM) was 149% and the viability, T/C (second compound 0.0316 µM, first compound 0.03 µM) was 104%. For the same compound, the viability, T/C (second compound 0.0316 µM, first compound 0.0949 µM) was 17.8%, the viability, T/C (second compound 0.0316 µM, first compound 0.3 µM) was 5.09% and the viability, T/C (second compound 0.1 µM, first compound 0.000949 µM) was 97.9%. It also gave a viability, T/C (second compound 0.1 µM, first compound 0.003 µM) of 109%, a viability, T/C (second compound 0.1 µM, first compound 0.00949 µM) of 145% and a viability, T/C (second compound 0.1 µM, first compound 0.03 µM) of 111%. For the same compound, the viability, T/C (second compound 0.1 µM, first compound 0.0949 µM) was 14.1%, the viability, T/C (second compound 0.1 µM, first compound 0.3 µM) was 4.5% and the viability, T/C (second compound 0.316 µM, first compound 0.000949 µM) was 118%. For the same compound, the viability, T/C (second compound 0.316 µM, first compound 0.003 µM) was 108%, the viability, T/C (second compound 0.316 µM, first compound 0.00949 µM) was 149% and the viability, T/C (second compound 0.316 µM, first compound 0.03 µM) was 98.7%. For the same compound, the viability, T/C (second compound 0.316 µM, first compound 0.0949 µM) was 15.8%, the viability, T/C (second compound 0.316 µM, first compound 0.3 µM) was 4.13% and the viability, T/C (second compound 1 µM, first compound 0.000949 µM) was 110%. It also gave a viability, T/C (second compound 1 µM, first compound 0.003 µM) of 108%, a viability, T/C (second compound 1 µM, first compound 0.00949 µM) of 166% and a viability, T/C (second compound 1 µM, first compound 0.03 µM) of 108%. It also gave a viability, T/C (second compound 1 µM, first compound 0.0949 µM) of 15.6% and a viability, T/C (second compound 1 µM, first compound 0.3 µM) of 3.79%.
`NC1CCC(NC2CC2c2ccccc2)CC1` (stereo not given) + CNC(C)C(=O)NC1CN(S(=O)(=O)c2cccc(S(=O)(=O)N3CCC4CCC(C(=O)NC(c5ccccc5)c5ccccc5)N4C(=O)C(NC(=O)C(C)NC)C3)c2)CCC2CCC(C(=O)NC(c3ccccc3)c3ccccc3)N2C1=O gave a pIC50 (second compound 0.01 µM) of less than 7.00, a pIC50 (second compound 0.0316 µM) of less than 7.00 and a pIC50 (second compound 0.1 µM) of less than 7.00. It also gave a pIC50 (second compound 0.316 µM) of less than 7.00, a pIC50 (second compound 1 µM) of less than 7.00 and a viability, T/C (second compound 0.01 µM, first compound 0.000316 µM) of 94.2%. For the same compound, the viability, T/C (second compound 0.01 µM, first compound 0.001 µM) was 86.1%, the viability, T/C (second compound 0.01 µM, first compound 0.00316 µM) was 82.1% and the viability, T/C (second compound 0.01 µM, first compound 0.01 µM) was 87.2%. It also gave a viability, T/C (second compound 0.01 µM, first compound 0.0316 µM) of 83.9%, a viability, T/C (second compound 0.01 µM, first compound 0.1 µM) of 81% and a viability, T/C (second compound 0.0316 µM, first compound 0.000316 µM) of 89.9%. For the same compound, the viability, T/C (second compound 0.0316 µM, first compound 0.001 µM) was 91.5%, the viability, T/C (second compound 0.0316 µM, first compound 0.00316 µM) was 100% and the viability, T/C (second compound 0.0316 µM, first compound 0.01 µM) was 84.9%. It also gave a viability, T/C (second compound 0.0316 µM, first compound 0.0316 µM) of 79.5%, a viability, T/C (second compound 0.0316 µM, first compound 0.1 µM) of 79.9% and a viability, T/C (second compound 0.1 µM, first compound 0.000316 µM) of 103%. It also gave a viability, T/C (second compound 0.1 µM, first compound 0.001 µM) of 103%, a viability, T/C (second compound 0.1 µM, first compound 0.00316 µM) of 85.4% and a viability, T/C (second compound 0.1 µM, first compound 0.01 µM) of 79.1%. For the same compound, the viability, T/C (second compound 0.1 µM, first compound 0.0316 µM) was 91.8%, the viability, T/C (second compound 0.1 µM, first compound 0.1 µM) was 91.8% and the viability, T/C (second compound 0.316 µM, first compound 0.000316 µM) was 90.4%. It also gave a viability, T/C (second compound 0.316 µM, first compound 0.001 µM) of 86.9%, a viability, T/C (second compound 0.316 µM, first compound 0.00316 µM) of 84.2% and a viability, T/C (second compound 0.316 µM, first compound 0.01 µM) of 95.9%. The viability, T/C (second compound 0.316 µM, first compound 0.0316 µM) was 85.3%, the viability, T/C (second compound 0.316 µM, first compound 0.1 µM) was 81.2% and the viability, T/C (second compound 1 µM, first compound 0.000316 µM) was 91.5%. It also gave a viability, T/C (second compound 1 µM, first compound 0.001 µM) of 96.6%, a viability, T/C (second compound 1 µM, first compound 0.00316 µM) of 87.9% and a viability, T/C (second compound 1 µM, first compound 0.01 µM) of 85.2%. The viability, T/C (second compound 1 µM, first compound 0.0316 µM) was 92.8% and the viability, T/C (second compound 1 µM, first compound 0.1 µM) was 86%.
